# Experimental data taken from US20040087633A1, “Methylidene oxazolidinone compound and preparation method thereof” (Korea Institute of Science and Technology, priority 2002, published 2004).
# Tests used:
# Experiment in all cases: Anti-microbial activity test in vitro (agar dilution MIC)
# [1] = test system: E. faecalis ATCC29212; assay type: cell-based; conditions: E. faecalis ATCC29212; Agar Dilution method, Mueller Hinton Agar, 18 hours at 37° C.
# Procedure: (§1) Anti-microbial activity test in vitro
# (§2) Strains were cultivated for 18 hours at 37° C. in Agar Dilution method using Mueller Hinton Agar, and then plane plates inoculated with the strains by diluting them two times gradually were aligned in a row. Minimum inhibition concentration (MIC, μg/ml) for the representative compounds of the present invention, Linezolid (LZD) and vancomycin (VAN) were decided through visual observation, and the results are shown in the following tables 2 and 3.
# [2] = test system: S. aureus ATCC 29213; assay type: cell-based; conditions: Agar Dilution method, Mueller Hinton Agar, 18 hours at 37° C.
# Procedure: as §1, §2
# [3] = test system: E. faecalis C6291; assay type: cell-based; conditions: E. faecalis C6291; Agar Dilution method, Mueller Hinton Agar, 18 hours at 37° C.
# Procedure: as §1, §2
# [4] = test system: E. faecium C6301; assay type: cell-based; conditions: E. faecium C6301; Agar Dilution method, Mueller Hinton Agar, 18 hours at 37° C.
# Procedure: as §1, §2
# [5] = test system: S. epidermidis C2235; assay type: cell-based; conditions: S. epidermidis C2235; Agar Dilution method, Mueller Hinton Agar, 18 hours at 37° C.
# Procedure: as §1, §2
# [6] = test system: S. epidermidis C2230; assay type: cell-based; conditions: S. epidermidis C2230; Agar Dilution method, Mueller Hinton Agar, 18 hours at 37° C.
# Procedure: as §1, §2
# [7] = test system: S. pyogenes C6012; assay type: cell-based; conditions: S. pyogenes C6012; Agar Dilution method, Mueller Hinton Agar, 18 hours at 37° C.
# Procedure: as §1, §2
# [8] = test system: S. pyogenes C6003; assay type: cell-based; conditions: S. pyogenes C6003; Agar Dilution method, Mueller Hinton Agar, 18 hours at 37° C.
# Procedure: as §1, §2
# [9] = test system: E. faecalis C6288; assay type: cell-based; conditions: E. faecalis C6288; Agar Dilution method, Mueller Hinton Agar, 18 hours at 37° C.
# Procedure: as §1, §2
# [10] = test system: S. pyogenes ATCC8668; assay type: cell-based; conditions: S. pyogenes ATCC8668; Agar Dilution method, Mueller Hinton Agar, 18 hours at 37° C.
# Procedure: as §1, §2
# [11] = test system: E. faecium C2252; assay type: cell-based; conditions: E. faecium C2252; Agar Dilution method, Mueller Hinton Agar, 18 hours at 37° C.
# Procedure: as §1, §2
# [12] = test system: S. epidermidis ATCC12228; assay type: cell-based; conditions: S. epidermidis ATCC12228; Agar Dilution method, Mueller Hinton Agar, 18 hours at 37° C.
# Procedure: as §1, §2
# [13] = test system: VRE C6488; assay type: cell-based, Enterococcus faecium; conditions: VRE C6488; Agar Dilution method, Mueller Hinton Agar, 18 hours at 37° C.
# Procedure: as §1, §2
# [14] = test system: VRE C6487; assay type: cell-based, Enterococcus faecium; conditions: VRE C6487; Agar Dilution method, Mueller Hinton Agar, 18 hours at 37° C.
# Procedure: as §1, §2
# [15] = test system: MSSA C2214; assay type: cell-based, Staphylococcus aureus; conditions: MSSA C2214; Agar Dilution method, Mueller Hinton Agar, 18 hours at 37° C.
# Procedure: as §1, §2
# [16] = test system: MRSA C5100; assay type: cell-based, Staphylococcus aureus; conditions: MRSA C5100; Agar Dilution method, Mueller Hinton Agar, 18 hours at 37° C.
# Procedure: as §1, §2
# [17] = test system: MSSA C7142; assay type: cell-based, Staphylococcus aureus; conditions: MSSA C7142; Agar Dilution method, Mueller Hinton Agar, 18 hours at 37° C.
# Procedure: as §1, §2
# [18] = test system: CRSA C1062; assay type: cell-based, Staphylococcus aureus; conditions: CRSA C1062; Agar Dilution method, Mueller Hinton Agar, 18 hours at 37° C.
# Procedure: as §1, §2
# [19] = test system: MRSA C6068; assay type: cell-based, Staphylococcus aureus; conditions: MRSA C6068; Agar Dilution method, Mueller Hinton Agar, 18 hours at 37° C.
# Procedure: as §1, §2
# [20] = test system: CRSA C6043; assay type: cell-based, Staphylococcus aureus; conditions: CRSA C6043; Agar Dilution method, Mueller Hinton Agar, 18 hours at 37° C.
# Procedure: as §1, §2
# [21] = test system: MRSA C2207; assay type: cell-based, Staphylococcus aureus; conditions: MRSA C2207; Agar Dilution method, Mueller Hinton Agar, 18 hours at 37° C.
# Procedure: as §1, §2
Minimum inhibition concentration (MIC) [1],Minimum inhibition concentration (MIC) [2],Minimum inhibition concentration (MIC) [3],Minimum inhibition concentration (MIC) [4],Minimum inhibition concentration (MIC) [5],Minimum inhibition concentration (MIC) [6],Minimum inhibition concentration (MIC) [7],Minimum inhibition concentration (MIC) [8],Minimum inhibition concentration (MIC) [9],Minimum inhibition concentration (MIC) [10],Minimum inhibition concentration (MIC) [11],Minimum inhibition concentration (MIC) [12],Minimum inhibition concentration (MIC) [13],Minimum inhibition concentration (MIC) [14],Minimum inhibition concentration (MIC) [15],Minimum inhibition concentration (MIC) [16],Minimum inhibition concentration (MIC) [17],Minimum inhibition concentration (MIC) [18],Minimum inhibition concentration (MIC) [19],Minimum inhibition concentration (MIC) [20],SMILES,further results
16 µg/mL,32 µg/mL,16 µg/mL,16 µg/mL,8 µg/mL,8 µg/mL,4 µg/mL,16 µg/mL,16 µg/mL,2 µg/mL,16 µg/mL,4 µg/mL,16 µg/mL,16 µg/mL,16 µg/mL,16 µg/mL,32 µg/mL,32 µg/mL,16 µg/mL,16 µg/mL,"CC(=O)NC[C@H]1CN(c2ccc(N3CCC(=Cc4cc(-c5cccs5)no4)CC3)c(F)c2)C(=O)O1 [Compound 9, N-[[(5S)-3-[3-fluoro-4-((4-(3-thiophen-2-yl-5-isoxazolyl)-methylidene)piperidinyl)phenyl]-2-oxo-5-oxazolidinyl]methyl]acetamide]",Minimum inhibition concentration (MIC) [21]: 32 µg/mL
16 µg/mL,16 µg/mL,8 µg/mL,8 µg/mL,4 µg/mL,4 µg/mL,2 µg/mL,8 µg/mL,16 µg/mL,2 µg/mL,8 µg/mL,2 µg/mL,8 µg/mL,4 µg/mL,16 µg/mL,8 µg/mL,8 µg/mL,16 µg/mL,8 µg/mL,16 µg/mL,"CC(=O)NC[C@H]1CN(c2ccc(N3CCC(=Cc4cc(-c5csnc5C)no4)CC3)c(F)c2)C(=O)O1 [Compound 10, N-[[(5S)-3-[3-fluoro-4-((4-(3-(3-methyl-isothiazol-4-yl)-iso-xazolyl)methylidene)piperidinyl)phenyl]-2-oxo-5-oxazolidinyl]methyl]acetamide]",Minimum inhibition concentration (MIC) [21]: 16 µg/mL

SMILES,Minimum inhibition concentration (MIC) [1],Minimum inhibition concentration (MIC) [2],Minimum inhibition concentration (MIC) [3],Minimum inhibition concentration (MIC) [4],Minimum inhibition concentration (MIC) [5],Minimum inhibition concentration (MIC) [6],Minimum inhibition concentration (MIC) [7],Minimum inhibition concentration (MIC) [8],Minimum inhibition concentration (MIC) [9],Minimum inhibition concentration (MIC) [10],Minimum inhibition concentration (MIC) [11],Minimum inhibition concentration (MIC) [12],Minimum inhibition concentration (MIC) [13],Minimum inhibition concentration (MIC) [14],Minimum inhibition concentration (MIC) [15],Minimum inhibition concentration (MIC) [16],Minimum inhibition concentration (MIC) [17],Minimum inhibition concentration (MIC) [18],Minimum inhibition concentration (MIC) [19],Minimum inhibition concentration (MIC) [20],further results
"CC(=O)NC[C@H]1CN(c2ccc(N3CCC(=CC(C)OC(=O)CCl)CC3)c(F)c2)C(=O)O1 (stereo partly drawn) [Compound 24, N-[[(5S)-3-[3-fluoro-4-(4-(2-(chloroacetoxy)propylidene)-piperidinyl)-phenyl]-2-oxo-5-oxazolidinyl]methyl]acetamide]",8 µg/mL,16 µg/mL,16 µg/mL,8 µg/mL,8 µg/mL,8 µg/mL,2 µg/mL,8 µg/mL,16 µg/mL,2 µg/mL,16 µg/mL,2 µg/mL,4 µg/mL,4 µg/mL,16 µg/mL,16 µg/mL,16 µg/mL,8 µg/mL,8 µg/mL,16 µg/mL,Minimum inhibition concentration (MIC) [21]: 16 µg/mL
